compound: CO[C@@H]1[C@H](N(C)C(=O)c2ccccc2)C[C@H]2O[C@]1(C)n1c3ccccc3c3c4c(c5c6ccccc6n2c5c31)C(=O)NC4 [Midostaurin] + Cc1nc(Nc2ncc(C(=O)Nc3c(C)cccc3Cl)s2)cc(N2CCN(CCO)CC2)n1 [Dasatinib] (partner 0.075 µM); assay: relative viability (nuclei count vs DMSO), 5 days (fraction); higher = more cells survive; details: first compound 0.1 µM
Outline: (§1)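 Cells from lung cancer lines were seeded into 1536-well plates and, one day later, dosed by pin tool. Treatments were either a single drug or a fixed dose of an anchor drug with five library-drug doses (not always all listed) in √10 steps. After 5 days, nuclei were stained in a one-step fixation (final 0.05% Triton X-100, 1% formaldehyde, 1 ug/ml Hoechst) and counted on 4× images, and relative viability is the treated-to-vehicle nuclei ratio, as the median of duplicate plates.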

Cell Line | relative viability
HOP-62 | 0.643
NCI-H522 | 0.789
LU99A | 0.541
BEN | 0.405
HARA | 0.269
SW 900 | 0.538
NCI-H322M | 0.258
LCLC-97TM1 | 0.827
A-427 | 0.607
NCI-H441 | 0.552
NCI-H1734 | 0.477
NCI-H460 | 0.478
NCI-H2347 | 0.281
NCI-H1395 | 0.404
201T | 0.562
NCI-H1915 | 0.29
HCC-827 | 0.386
LXF-289 | 0.174
NCI-H23 | 0.559
NCI-H647 | 0.134
CAL-12T | 0.295
NCI-H1651 | 0.408
EPLC-272H | 0.422
NCI-H1355 | 0.743
NCI-H3122 | 0.731
NCI-H1437 | 0.35
NCI-H1755 | 0.436
HCC-15 | 0.657
NCI-H1793 | 0.345
PC-14 | 0.218

same assay, conditions: first compound 0.3162 µM

Cell Line | relative viability
NCI-H2405 | 0.201
HOP-62 | 0.509
NCI-H522 | 1.04
LU99A | 0.348
BEN | 0.379
HARA | 0.283
SW 900 | 0.275
NCI-H322M | 0.332
LCLC-97TM1 | 0.968
A-427 | 0.704
NCI-H441 | 0.405
NCI-H1734 | 0.338
NCI-H460 | 0.553
NCI-H2347 | 0.327
NCI-H1395 | 0.403
201T | 0.558

Cell Line | relative viability
NCI-H1915 | 0.331
HCC-827 | 0.341
LXF-289 | 0.124
NCI-H23 | 0.523
NCI-H647 | 0.103
CAL-12T | 0.239
NCI-H1651 | 0.446
EPLC-272H | 0.351
NCI-H1355 | 0.818
NCI-H3122 | 0.978
NCI-H1437 | 0.368
NCI-H1755 | 0.343
HCC-15 | 0.635
NCI-H1793 | 0.362
PC-14 | 0.182

compound: CO[C@@H]1[C@H](N(C)C(=O)c2ccccc2)C[C@H]2O[C@]1(C)n1c3ccccc3c3c4c(c5c6ccccc6n2c5c31)C(=O)NC4 [Midostaurin] + CCNC(=O)c1noc(-c2cc(C(C)C)c(O)cc2O)c1-c1ccc(CN2CCOCC2)cc1 [Luminespib] (partner 0.01 µM); assay: as above; details: first compound 0.01 µM
Outline: as §1

Cell Line | relative viability
NCI-H2405 | 0.729
HOP-62 | 0.871
NCI-H522 | 1.07
LU99A | 0.268
BEN | 0.541
HARA | 0.917
SW 900 | 0.192
NCI-H322M | 0.826
LCLC-97TM1 | 0.836
A-427 | 0.869
NCI-H441 | 0.379
NCI-H1734 | 0.224
NCI-H460 | 0.0367
NCI-H2347 | 0.422
NCI-H1395 | 0.837
201T | 1.02

Cell Line | relative viability
NCI-H1915 | 0.711
HCC-827 | 0.51
LXF-289 | 0.692
NCI-H23 | 0.263
NCI-H647 | 0.191
CAL-12T | 0.174
NCI-H1651 | 0.905
EPLC-272H | 0.323
NCI-H1355 | 0.682
NCI-H3122 | 0.093
NCI-H1437 | 1.02
NCI-H1755 | 0.418
HCC-15 | 0.305
NCI-H1793 | 0.281
PC-14 | 0.136

same assay, conditions: first compound 0.03162 µM

Cell Line | relative viability
NCI-H2405 | 0.704
HOP-62 | 0.875
NCI-H522 | 1.51
LU99A | 0.221
BEN | 1.23
HARA | 0.712
SW 900 | 0.198
NCI-H322M | 0.829
LCLC-97TM1 | 0.713
A-427 | 0.905
NCI-H441 | 0.358
NCI-H1734 | 0.192
NCI-H460 | 0.0356
NCI-H2347 | 0.727
NCI-H1395 | 0.702
201T | 0.98
NCI-H1915 | 0.75
HCC-827 | 0.644
LXF-289 | 0.706
NCI-H23 | 0.251
NCI-H647 | 0.181
CAL-12T | 0.172
NCI-H1651 | 0.731
NCI-H1355 | 0.762
NCI-H3122 | 0.104
NCI-H1437 | 1
NCI-H1755 | 0.47
HCC-15 | 0.38
NCI-H1793 | 0.307
PC-14 | 0.197

same assay, conditions: first compound 0.1 µM

Cell Line | relative viability
NCI-H2405 | 0.64
HOP-62 | 0.934
NCI-H522 | 1.26
LU99A | 0.228
BEN | 0.396
HARA | 0.681
SW 900 | 0.189
NCI-H322M | 0.969
LCLC-97TM1 | 0.749
A-427 | 0.753
NCI-H441 | 0.429
NCI-H1734 | 0.178
NCI-H460 | 0.0302
NCI-H2347 | 0.366
NCI-H1395 | 0.573
201T | 0.997

Cell Line | relative viability
NCI-H1915 | 0.613
HCC-827 | 0.709
LXF-289 | 0.482
NCI-H23 | 0.227
NCI-H647 | 0.141
CAL-12T | 0.212
NCI-H1651 | 0.664
EPLC-272H | 0.333
NCI-H1355 | 0.666
NCI-H3122 | 0.0868
NCI-H1437 | 1.03
NCI-H1755 | 0.247
HCC-15 | 0.308
NCI-H1793 | 0.169
PC-14 | 0.147

same assay, conditions: first compound 0.3162 µM

Cell Line | relative viability
NCI-H2405 | 0.45
